Measurements: the supplement of paper PMC6045584
± gives the standard deviation of the averaged measurements.

Legend:
[1] = compound: COc1ccc(-c2cc3c(C)nc(N)nc3n([C@H]3CC[C@H](OCCO)CC3)c2=O)cn1; experiment: surviving fraction relative to DMSO-only wells; higher = less growth inhibition; conditions: exposure time: 5 days
Outline: (§1)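 Viability values are CellTiter-Glo luminescence readings, given as surviving fraction against the median of DMSO-only wells. The readings were taken after 10 minutes at room temperature, following five days of continuous exposure to inhibitors at 0.5, 1, 5, 10, 50, 100, 500 and 1000 nM that began 24 hours after log-phase tumour cell lines were seeded at 250–500 cells per well in 384-well plates. Every line was screened three times and kept only if replicate Pearson r >0.7 and median Z' >0.3.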

IMATINIB = compound: Cc1ccc(NC(=O)c2ccc(CN3CCN(C)CC3)cc2)cc1Nc1nccc(-c2cccnc2)n1 [IMATINIB]; experiment: as above; conditions: exposure time: 5 days
Outline: as §1

Row | Test System | surviving fraction ([1]; 0.5 nM) | surviving fraction ([1]; 1 nM) | surviving fraction ([1]; 5 nM) | surviving fraction ([1]; 10 nM) | surviving fraction ([1]; 50 nM) | surviving fraction ([1]; 100 nM) | surviving fraction ([1]; 500 nM) | surviving fraction ([1]; 1000 nM) | surviving fraction (IMATINIB; 0.5 nM) | surviving fraction (IMATINIB; 1 nM) | surviving fraction (IMATINIB; 5 nM) | surviving fraction (IMATINIB; 10 nM) | surviving fraction (IMATINIB; 50 nM) | surviving fraction (IMATINIB; 100 nM) | surviving fraction (IMATINIB; 500 nM) | surviving fraction (IMATINIB; 1000 nM)
1 | H23 LUNG | 0.989 ± 0.016 | 0.98 ± 0.078 | 0.872 ± 0.063 | 0.731 ± 0.042 | 0.422 ± 0.018 | 0.265 ± 0.028 | 0.127 ± 0.0091 | 0.0933 ± 0.005 | 1.04 ± 0.049 | 1.01 ± 0.021 | 1.06 ± 0.031 | 1.07 ± 0.0035 | 1.08 ± 0.07 | 1.13 ± 0.061 | 1.12 ± 0.066 | 1.13 ± 0.065
2 | HCC78 LUNG | 0.928 ± 0.31 | 0.845 ± 0.15 | 0.653 ± 0.27 | 0.588 ± 0.17 | 0.28 ± 0.048 | 0.104 ± 0.0093 | 0.022 ± 0.0044 | 0.0197 ± 0.0023 | 0.936 ± 0.094 | 1.03 ± 0.16 | 0.997 ± 0.043 |  | 1.04 ± 0.072 |  | 1.34 ± 0.16 | 1.18 ± 0.091
3 | HCC202 BREAST | 1.18 ± 0.25 | 1.37 ± 0.17 | 0.947 ± 0.27 | 0.94 ± 0.21 | 0.635 ± 0.18 | 0.295 ± 0.047 | 0.0793 ± 0.018 | 0.048 ± 0.013 | 1.44 ± 0.69 | 0.908 ± 0.013 | 1.28 ± 0.18 |  | 1.11 ± 0.34 | 1.32 ± 0.45 | 1.3 ± 0.15 | 1.39 ± 0.35
4 | HCC1395 BREAST | 0.864 ± 0.096 | 0.956 ± 0.025 | 0.998 ± 0.076 | 1.03 ± 0.029 | 0.883 ± 0.21 | 0.846 ± 0.13 | 0.766 ± 0.1 | 0.581 ± 0.15 | 1.23 ± 0.023 | 1.06 ± 0.11 | 1.24 ± 0.097 | 1.36 ± 0.13 | 1.19 ± 0.16 | 1.36 ± 0.049 | 1.15 ± 0.068 | 1.11 ± 0.29
5 | HCC1806 BREAST | 1.08 ± 0.14 | 1.1 ± 0.042 | 1.12 ± 0.18 | 1.05 ± 0.094 | 0.993 ± 0.059 | 0.754 ± 0.1 | 0.366 ± 0.037 | 0.215 ± 0.0097 | 1.06 ± 0.044 | 1.05 ± 0.093 | 1.12 ± 0.07 | 1.16 ± 0.021 | 1.15 ± 0.15 | 1.24 ± 0.08 | 0.983 ± 0.077 | 0.956 ± 0.15
6 | HCC1954 BREAST | 0.993 ± 0.024 | 0.945 ± 0.056 | 1.153 ± 0.0064 | 1.03 ± 0.044 | 0.487 ± 0.08 | 0.322 ± 0.047 | 0.0592 ± 0.0095 | 0.0478 ± 0.0011 | 1.2 ± 0.15 | 1.28 ± 0.091 | 1.23 ± 0.12 | 1.27 ± 0.045 | 0.9283 ± 0.006 | 0.887 ± 0.025 | 1.07 ± 0.1 | 1 ± 0.0071
7 | HCT15 LARGE INTESTINE | 0.981 ± 0.029 | 1.04 ± 0.051 | 1.01 ± 0.016 | 0.975 ± 0.021 | 0.76 ± 0.016 | 0.543 ± 0.04 | 0.16 ± 0.013 | 0.091 ± 0.0046 | 1.13 ± 0.027 | 1.1 ± 0.035 | 1.12 ± 0.024 | 1.12 ± 0.038 | 1.15 ± 0.08 | 1.119 ± 0.011 | 1.18 ± 0.054 | 1.14 ± 0.046
8 | HELA CERVIX | 0.998 ± 0.04 | 0.989 ± 0.088 | 1.02 ± 0.042 | 1.02 ± 0.035 | 1.11 ± 0.039 | 1.06 ± 0.052 | 0.4 ± 0.019 | 0.318 ± 0.017 | 1.13 ± 0.034 | 1.04 ± 0.039 | 1.03 ± 0.056 |  |  | 1.1 ± 0.016 | 1.14 ± 0.086 | 1.09 ± 0.043
